# What was measured:
# [1] = test system: DU145 prostate cancer cells; conditions: cited from earlier work
# Akt = assay: Activation of Akt by different selenium compounds in PC-3 cells, immunoblot; type: cell-based, human; conditions: 125 μM, 6 hours, serum starved PC-3 cells
# Excerpt: Signal intensities from the developed films were scanned and intensities of active Akt correlated to total Akt levels were plotted.
# PC-3 cells = assay: MTT growth assay; type: cell-based, human; conditions: 0.25 and 0.5 mM, 72 hour
# Experimental: MTT Growth Assays involved plating 1×10^3 PC-3 cells per well in a 96 well plate and allowing the cells to attach overnight. […] The controls for this experiment received an equal volume of LY294002 diluent (DMSO). MTT growth assays were then performed according to the manufacturer's protocol (Sigma).
# [2] = test system: cell cycle regulatory proteins (cyclin D1, cdk4, cdk6, p27KIP1, p21CIP1); assay: Immunoblot of cell cycle regulatory proteins in PC-3 cells; type: cell-based, human; conditions: 0.5 mM, compared to control (0 hours), FIG. 3C
# Excerpt: The following antibodies were obtained from Cell Signaling Technology (Beverly, Mass., USA) unless otherwise stated: anti-p27^KIP1 (bd Pharmingen), anti-p21^CIP1 , ANTI-CYCLIN d1, ANTI-CYCLIN d3, ANTI-CDK4, ANTI-CDK6, ANTI-PHOSPHO rb (Ser807/811), anti-RB, anti-phospho Akt (Ser473), anti-phospho Akt (Thre308), anti-Akt, anti-phospho PDK1 (Ser241), anti-phospho PDK1 (Tyr373/376), anti-phospho GSK-3β, anti-phospho mTOR (Ser2448), anti-mTOR, anti-βIII tubulin (Promega).
# To determine the effect of selenate on the phosphorylation of proteins involved in the PI3K/Akt signaling cascade, 5×10^5 PC-3 cells were allowed to attach for 10 hours. […] Cells were lysed in ELB (250 mM NaCl, 50 mM HEPES pH 7.0, 5 mM EDTA, 0.5 mM DTT, 0.2% TX100, 20 mM sodium fluoride, 2 mM sodium pervanadate, Complete Protease Inhibitor Cocktail (Roche)). Lysates were centrifuged for 15 minutes at 4° C. Protein concentration was determined using the BCA system (Sigma) and equal amounts of protein were loaded into each lane of a SDS-polyacrylamide gel. The proteins were transferred onto PVDF (Millipore) membranes and detected with anti-mouse or anti-rabbit secondary antibodies couples to horseradish peroxidase (HRP) and chemiluminescence using the SuperSignal West Dura (Pierce). Membranes were stripped using the Restore Western Blot Stripping Buffer (Pierce).
# GFP-FKHR fusion protein = assay: GFP-FKHR cellular localization in transfected PC-3 cells; type: cell-based, human; conditions: LY294002 50 μM 1 hour; sodium selenate or selenomethionine 0.5 mM 3 hours
# Experimental: The day before transfection, 5×10^5 PC-3 cells were seeded in 24-well dishes and transiently transfected with 0.8 μg of pcDNA3-GFP-FKHRwt construct (kind gift Dr Bill Sellers, Dana-Farber Institute, Boston) using Lipofectamine 2000 (Invitrogen). Cells were permeabilized in 0.2% Triton X-100 and the nuclear contents stained with DAPI. Coverslips were mounted with fluorescent mounting medium (DAKO). The cellular distribution of green fluorescence was determined in dual fluorescent cells using a Leica epifluorescent microscope.
# Reintroducing PTEN function in such cells induces translocation of FKHR to the nucleus eventually causing G1 arrest in PTEN-null cells (Nakamura et al 2000, supra).
# [3] = test system: human prostate cancer PC-3 cells; assay: Cell toxicity by Trypan Blue Exclusion, selenate versus selenite; conditions: 5 μM or 50 μM, 24 to 96 hours
# Experimental: 5×10^3 human prostate cancer PC-3 cells were seeded in a 24-well dish and 8 hours later were treated with either 5 μM or 50 μM of selenate or selenite. The dose range of 5 μM or 50 μM is equivalent to 0.1 mg/kg to 1.25 mg/kg. Cells were harvested at 24, 48, 72 and 96 hours following the addition of selenate or selenite and the percentage of viable cells as assessed by Trypan Blue staining was determined.
# All cells in the tissue culture wells were then harvested sequentially at periods between 24 and 96 hours following addition of the treatments. The percentage of viable cells were then determined using the Trypan Blue exclusion assay.
# β-tubulin = β-tubulin levels in treated PC-3 cell lysates; type: cell-based, human
# Histone H2A.X = conditions: 500 μM
# Experimental: 5×10^5 PC-3 cells were plated in a 6 well dish and 24 hours later cells were treated with paclitaxel at 1 μg/mL or 10 μg/mL or selenate 500 μM (19 mg/kg) or selenite 500 μM (18 mg/kg) for the indicated times. Cells were then washed in PBS, lysed in ELB lysis buffer and whole cell lysates run on a SDS-PAGE gel and blotted and probed with the indicated antibodies. Phosphorylation of Histone H2AX occurs within minutes of DNA damage, typically via DNA double or single strand breaks and is a very sensitive readout of DNA damage.
# To ascertain the differences between selenate, selenite and the taxane, paclitaxel in inducing DNA damage PC-3 cells were treated with these compounds for increasing time periods then lysed. The protein extracts were probed for phosphorylation of Histone H2A.X using a phosphorylation specific antibody.
# [4] = at certain doses; cited from earlier work
smiles,measurement,setting,value
C[Se](=O)O [Methylseleninic acid],apoptosis and phosphorylation of Akt in DU-145 cells,[1]; 3 μM,not associated with apoptosis or with decreased phosphorylation of Akt
same,G1 arrest and apoptosis markers in DU145 cells,[1],"induces G1 arrest, as well as DNA fragmentation and caspase mediated cleavage of PARP"
same,G1 arrest of DU-145 cells,[1]; doses as low as 3 μM,induced G1 arrest
same,Akt activation in DU-145 cells,[1]; higher doses of 5 μM,dose-dependent decline in Akt activation
same,apoptosis in DU-145 cells,[1]; higher doses of 5 μM,initiation of caspase-mediated apoptosis
N[C@@H](C[SeH])C(=O)O [Selenocysteine],activation of Akt (phosphorylated Akt relative to total Akt),Akt,induce activation of Akt above control (con) levels
O=[Se](O)O [Selenous acid],activation of Akt (phosphorylated Akt relative to total Akt),Akt,induce activation of Akt above control (con) levels
O=[Se]=O [selenium dioxide],activation of Akt (phosphorylated Akt relative to total Akt),Akt,induce activation of Akt above control (con) levels
S=[Se]=S [selenium sulfide],activation of Akt (phosphorylated Akt relative to total Akt),Akt,induce activation of Akt above control (con) levels
"C[Se]CC[C@H](N)C(=O)O [selenomethionine, reference compound]",PC-3 cell proliferation (MTT proliferative index),PC-3 cells,less effective in reducing cell proliferation
same,"p27KIP1 total protein levels, inorganic versus organic selenium",[2],little effect
same,relocalization of GFP-FKHR from the cytoplasm to the nucleus,GFP-FKHR fusion protein,unable to induce relocalization
O=[Se](O)O [sodium selenite],cytotoxic effect (Trypan Blue exclusion),[3],cytotoxic effect
same,cellular tubulin degradation,"β-tubulin; 100 μM, 250 μM or 500 μM, 16 hours",marked degradation
same,β-tubulin levels,"β-tubulin; 500 μM, increasing time periods",concomitant decrease in β-tubulin levels
same,time of treatment to DNA damage,Histone H2A.X,≤ 30 min
same,toxicity to cells,[4],toxic to cells
